Tests used:
Type in all cases: in vivo
[1] = tested on: barnyardgrass (Echinochloa crus-galli); experiment: Test B flooded paddy test; details: Echinochloa crus-galli, 360 h, Flood, 250 g ai/ha; visually evaluated after 13 to 15 d; read-out: Plant response rating, Barnyardgrass (0 to 100 scale where 0 is no effect and 100 is complete control)
In short: (§1)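 2-leaf plants; pots flooded 3 cm over soil; cpd added to paddy water; depth held; greenhouse 13–15 d; visual rating vs controls, 0 = no effect, 100 = complete control.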

[2] = tested on: rice (Oryra sativa); experiment: Test B flooded paddy test; details: Oryza sativa, 360 h, Flood, 250 g ai/ha; visually evaluated after 13 to 15 d; read-out: Plant response rating, Rice (0 to 100 scale where 0 is no effect and 100 is complete control)
In short: as §1

[3] = tested on: sedge, umbrella (small-flower umbrella sedge, Cyperus difformis); experiment: Test B flooded paddy test; details: Cyperus difformis, 360 h, Flood, 250 g ai/ha; visually evaluated after 13 to 15 d; read-out: Plant response rating, Sedge, Umbrella (0 to 100 scale where 0 is no effect and 100 is complete control)
In short: as §1

[4] = tested on: ducksalad (Heteranthera limosa); experiment: Test B flooded paddy test; details: Heteranthera limosa, 360 h, Flood, 250 g ai/ha; visually evaluated after 13 to 15 d; read-out: Plant response rating, Ducksalad (0 to 100 scale where 0 is no effect and 100 is complete control)
In short: as §1

[5] = tested on: ryegrass, Italian (Italian ryegrass, Lolium multiflorum); experiment: Test A postemergence; details: Lolium multiflorum, post-emergence, 240 h, Postemergence, read-out: Plant response rating, Ryegrass, Italian; for pest or weed control at 125 g/ha: 125 g ai/ha, visual injury after approx. 10 d, 0 to 100 scale, 0 no effect, 100 complete control; for pest or weed control at 500 g/ha: 500 g ai/ha, visual injury, 0 to 100 scale (0 no effect, 100 complete control), approx. 10 d
In short: (§2)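 Preemergence directed soil spray on seeded pots, or postemergence application to plants 2–10 cm, one- to two-leaf. Solvent mixture non-phytotoxic, with surfactant. Scored ~10 d later, visually, 0–100 vs untreated.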

[6] = tested on: Kochia (Kochia scoparia); experiment: Test A postemergence; details: Bassia scoparia, post-emergence, 240 h, Postemergence, read-out: Plant response rating, Kochia; for pest or weed control at 125 g/ha: 125 g ai/ha, visual injury after approx. 10 d, 0 to 100 scale, 0 no effect, 100 complete control; for pest or weed control at 500 g/ha: 500 g ai/ha, visual injury, 0 to 100 scale (0 no effect, 100 complete control), approx. 10 d
In short: as §2

[7] = tested on: barnyardgrass (Echinochloa crus-galli); experiment: Test A postemergence; details: Echinochloa crus-galli, post-emergence, 240 h, Postemergence, read-out: Plant response rating, Barnyardgrass; for pest or weed control at 125 g/ha: 125 g ai/ha, visual injury after approx. 10 d, 0 to 100 scale, 0 no effect, 100 complete control; for pest or weed control at 500 g/ha: 500 g ai/ha, visual injury, 0 to 100 scale (0 no effect, 100 complete control), approx. 10 d
In short: as §2

[8] = tested on: blackgrass (Alopecurus myosuroides); experiment: Test A postemergence; details: Alopecurus myosuroides, post-emergence, 240 h, Postemergence, read-out: Plant response rating, Blackgrass; for pest or weed control at 125 g/ha: 125 g ai/ha, visual injury after approx. 10 d, 0 to 100 scale, 0 no effect, 100 complete control; for pest or weed control at 500 g/ha: 500 g ai/ha, visual injury, 0 to 100 scale (0 no effect, 100 complete control), approx. 10 d
In short: as §2

[9] = tested on: Galium (catchweed bedstraw, Galium aparine); experiment: Test A postemergence; details: Galium, post-emergence, 240 h, Postemergence, read-out: Plant response rating, Galium; for pest or weed control at 125 g/ha: 125 g ai/ha, visual injury after approx. 10 d, 0 to 100 scale, 0 no effect, 100 complete control; for pest or weed control at 500 g/ha: 500 g ai/ha, visual injury, 0 to 100 scale (0 no effect, 100 complete control), approx. 10 d
In short: as §2

[10] = tested on: corn (Zea mays); experiment: Test A postemergence; details: Zea mays, post-emergence, 240 h, Postemergence; for Corn plant response rating (crop injury, 0 = no effect, 100 = complete kill) at 125 g/ha: 125 g ai/ha, visual injury after approx. 10 d, 0 to 100 scale, 100 complete control; for Corn plant response rating (crop injury, 0 = no effect, 100 = complete kill) at 500 g/ha: 500 g ai/ha, visual injury, 0 to 100 scale (0 no effect, 100 complete control), approx. 10 d
In short: as §2

[11] = tested on: giant foxtail (Setaria faberii); experiment: Test A postemergence; details: Setaria faberi, post-emergence, 240 h, Postemergence, read-out: Plant response rating, Foxtail, Giant; for pest or weed control at 125 g/ha: 125 g ai/ha, visual injury after approx. 10 d, 0 to 100 scale, 0 no effect, 100 complete control; for pest or weed control at 500 g/ha: 500 g ai/ha, visual injury, 0 to 100 scale (0 no effect, 100 complete control), approx. 10 d
In short: as §2

[12] = tested on: ragweed (common ragweed, Ambrosia elatior); experiment: Test A postemergence; details: Ambrosia artemisiifolia, post-emergence, 240 h, Postemergence, read-out: Plant response rating, Ragweed; for pest or weed control at 125 g/ha: 125 g ai/ha, visual injury after approx. 10 d, 0 to 100 scale, 0 no effect, 100 complete control; for pest or weed control at 500 g/ha: 500 g ai/ha, visual injury, 0 to 100 scale (0 no effect, 100 complete control), approx. 10 d
In short: as §2

[13] = tested on: wheat (Triticum aestivum); experiment: Test A postemergence; details: Triticum aestivum, post-emergence, 240 h, Postemergence, read-out: Plant response rating, Wheat; for plant injury at 125 g/ha: 125 g ai/ha, visual injury after approx. 10 d, 0 to 100 scale, 0 no effect, 100 complete control; for plant injury at 500 g/ha: 500 g ai/ha, visual injury, 0 to 100 scale (0 no effect, 100 complete control), approx. 10 d
In short: as §2

[14] = tested on: pigweed (Amaranthus retroflexus); experiment: Test A postemergence; details: Amaranthus retroflexus, post-emergence, 240 h, Postemergence, read-out: Plant response rating, Pigweed; for pest or weed control at 125 g/ha: 125 g ai/ha, visual injury after approx. 10 d, 0 to 100 scale, 0 no effect, 100 complete control; for pest or weed control at 500 g/ha: 500 g ai/ha, visual injury, 0 to 100 scale (0 no effect, 100 complete control), approx. 10 d
In short: as §2

| Compound | pest or weed control at 250 g/ha [1] | pest or weed control at 250 g/ha [2] | pest or weed control at 250 g/ha [3] | pest or weed control at 250 g/ha [4] | pest or weed control at 125 g/ha [5] | pest or weed control at 500 g/ha [5] | pest or weed control at 125 g/ha [6] | pest or weed control at 500 g/ha [6] | pest or weed control at 125 g/ha [7] | pest or weed control at 500 g/ha [7] | pest or weed control at 125 g/ha [8] | pest or weed control at 500 g/ha [8] | pest or weed control at 125 g/ha [9] | pest or weed control at 500 g/ha [9] | Corn plant response rating (crop injury, 0 = no effect, 100 = complete kill) at 125 g/ha [10] | Corn plant response rating (crop injury, 0 = no effect, 100 = complete kill) at 500 g/ha [10] | pest or weed control at 125 g/ha [11] | pest or weed control at 500 g/ha [11] | pest or weed control at 125 g/ha [12] | pest or weed control at 500 g/ha [12] | also measured |
| --- | --- | --- | --- | --- | --- | --- | --- | --- | --- | --- | --- | --- | --- | --- | --- | --- | --- | --- | --- | --- | --- |
| Cc1ccc([C@H]2CN(C)C(=O)[C@@H]2C(=O)Nc2ccccc2F)cc1Cl [Compound 1384] | 65% | 40% | 0% | 100% | 30% | 30% | 40% | 60% | 90% | 90% | 0% | 30% | 30% | 70% | 70% | 90% | 80% | 90% | 40% | 40% | plant injury at 125 g/ha [13]: 0%; plant injury at 500 g/ha [13]: 50%; pest or weed control at 125 g/ha [14]: 0%; pest or weed control at 500 g/ha [14]: 20% |
| Cc1c(F)cccc1NC(=O)[C@H]1C(=O)N(C)C[C@@H]1c1ccc(C(F)(F)F)cc1 [Compound 1386] | 55% | 0% | 0% | 100% | 40% | 60% | 70% | 70% | 90% | 90% | 70% | 80% | 60% | 60% | 70% | 80% | 90% | 90% | 20% | 50% | plant injury at 125 g/ha [13]: 50%; plant injury at 500 g/ha [13]: 60%; pest or weed control at 125 g/ha [14]: 40%; pest or weed control at 500 g/ha [14]: 70% |
| CC(C)c1cccc([C@H]2CN(C)C(=O)[C@@H]2C(=O)Nc2cccc(F)c2F)c1 [Compound 1388] | 65% | 0% | 0% | 80% | 60% | 90% | 30% | 50% | 100% | 100% | 70% | 90% | 50% | 50% | 60% | 80% | 90% | 90% | 0% | 50% | plant injury at 125 g/ha [13]: 50%; plant injury at 500 g/ha [13]: 60%; pest or weed control at 125 g/ha [14]: 40%; pest or weed control at 500 g/ha [14]: 50% |
| CN1C[C@H](c2cccc(C(F)(F)F)c2)[C@@H](C(=O)Nc2ccc(F)c(F)c2F)C1=O [Compound 1389] | 60% | 15% | 0% | 100% | 70% | 80% | 60% | 80% | 90% | 100% | 50% | 50% | 60% | 70% | 90% | 90% | 80% | 80% | 0% | 20% | plant injury at 125 g/ha [13]: 60%; plant injury at 500 g/ha [13]: 70%; pest or weed control at 125 g/ha [14]: 30%; pest or weed control at 500 g/ha [14]: 70% |
| O=C1NC[C@H](c2nccc(C(F)(F)F)n2)[C@H]1C(=O)Nc1cccc(F)c1F [Compound 1392] | 0% | 0% | 0% | 30% | 0% | 0% | 0% | 0% | 0% | 40% | 0% | 0% | 0% | 0% | 0% | 20% | 0% | 30% | 0% | 0% | plant injury at 125 g/ha [13]: 0%; plant injury at 500 g/ha [13]: 30%; pest or weed control at 125 g/ha [14]: 0%; pest or weed control at 500 g/ha [14]: 0% |

— patent US12077503B2, “Substituted cyclic amides and their use as herbicides” (FMC CORPORATION, priority 2015, dated 2024)
